Test results reported in patent publication US6379665B1, “Phospholipase D polypeptide and DNA sequences” (Onyx Pharmaceuticals, Inc., priority 1996, dated 2002).

Key:
[1] = system: PLD1; assay: basic PLD assay with purified PLD1 and activators (headgroup-labeled phosphatidylcholine); format: biochemical, human; design: increase in maximal effect of PKC- on PLD1: dose or concentration left out as unconfirmed; settings: for lipid content giving maximal activation of PLD1: lipid fraction of vesicles; for stimulation of PLD1 activity by lipid: vesicles with 7% acidic lipid in PE/PS background
Procedure: The basic PLD assay was performed as described in Hammond, J. Biol. Chem. 270: 29640-43 (1995) using headgroup-labeled phosphatidyl-choline. Lipids were prepared and labeled. Labeled choline was obtained from American Radiolabelled Chemicals Inc. (Catalog No. ART 284) and extracted with chloroform and methanol 100 ml chloroform/100 ml methanol/90 ml water (100,000 dpm/assay; 1.6 ml). The mixture was vortexed, spun and the bottom layer collected and added to the lipid mixture to give a final concentration of 67 mM PE (Avanti Polar Lipids, Alabaster, Ala., catalog no 850757), 7.6 mM PIP2 (suspended in 20 mM Hepes, pH 7) and 5.4 mM PC (Avanti catalog no 850457). The labeled choline/lipid mixture was sonicated and vortexed until the lipids are dissolved. Sf9 cells were plated onto large flasks (30×10^6 cells/flask) and left to adhere. Once adhered, medium was removed and the cells were infected with virus (at 1:5 or 1:10) for 1 hour with gentle rocking. After that time, virus was removed and fresh medium added, and the cells left to grow for 48 hours at 27 C. Medium was removed from the flask and the cells were washed once with PBS and then lysed in 5 ml lysis buffer (25 mM Tris, 5 mM EDTA, pH 7.5). Cells were scraped out of the flask, placed on ice, sonicated for 10 seconds and centrifuged in a […] centrifuge for 10 minutes at 700 rpm. Supernatant was removed and spun at 30,000 rpm for 60 minutes. Supernatant from this second centrifugation was then removed, and the pellet was resuspended in 0.5 ml lysis buffer, votexed and allowed to settle out.
For the assay, the resulting supernatant containing PLD1 enzyme (1-10 ml) was combined with G-protein(s), 20 ml assay buffer (30 mM Na-Hepes, pH 7.5, 3 mM EGTA, 80 mM KCl, 1 mM DTT, 3.0 mM MgCl2 and 2.0 mM CaCl2) and 10 mM Hepes to make a total volume of 50 ml. 50 ml of the labeled lipid mixture was added, vortexed thoroughly, and incubated at 37 C. for 30 minutes. The reaction was stopped by adding 200 ml of 10% TCA and 100 ml of 10 mg/ml BSA and centrifugation for 5 minutes at 10,000 rpm. […] of the supernatant was removed and counted in 2 ml of scintillation fluid using a LKB scintillation counter for 60 seconds. This was the basic assay used for the following experiments; any modifications were as described below.
To investigate the dependence of enzyme activity on calcium and magnesium, the concentrations of calcium and magnesium ions of the assay medium were varied. For some assays the lipid component of the vesicles was altered. Ptdins (4,5)P2 was purified from a lipid extract of bovine brain as described in Hammond, supra. Synthetic Ptdins (3,4,5)P3 was obtained from Glenn Prestwich, Dept. of Chemistry, SUNY Stony Brook. [^32P]-labeled phospholipids were isolated from extracts of U937 cells labeled overnight with [^32P] PO4 2- as described in Hammond, supra.
Vesicles containing 7% acidic lipid in a background of PE/PS were employed in the foregoing assay. The lipids tested were PI(4,5)P2, PI(3,4,5)P3, PI4P and PI.
ARF-stimulated PLD1activity was determined as the free concentrations of these ions were varied in the assay medium. PLD1 activity was insensitive to changes in Ca^2+ concentration over a side range (<10^−8 M to 10^−2 M). By contrast, ARF-stimulated PLD1 activity was dependent on Mg^2+ with half-maximal activity observed at approximately 10^−4 M.
PLD1 was incubated with increasing concentrations of purified GTP S-activated ARF1(ADP-ribosylation factor 1), RhoA, Rac1 and cdc42. […] RhoA and Rac1 stimulated the enzyme approximately 10- and 13-fold respectively and cdc42 produced an approximately 5-fold activation. Effects of ARF and Rac1 were clearly saturable and, although the concentrations of purified RhoA and cdc42 obtained limited the final concentrations achieved in the assay, at the highest concentrations used, effects of these activators also appeared to be approaching saturation. Activation of PLD1 by these G-proteins was strictly dependent on GTP S. […]

[2] = system: HL-60 cells; assay: RT-PCR quantification of hPLD2 during dbcAMP-induced HL-60 cell differentiation; format: cell-based, human; settings: 0.5 mM dbcAMP
Procedure: From the data of Example 7, it was known that a human analog of mPLD2 existed. mPLD2 primers were made from the expressed sequence tags existing in GenBank. To analyze changes in the levels of hPLD2 activity during HL-60 cell differentiation induced by dcbAMP, HL-60 cells maintained in RPMI-1640 medium supplemented with 10% fetal bovine serum, 100 units.ml penicillin and 100 µg/ml streptomycin in a humidified atmosphere containing 5% CO2, at 37 C. were grown in RPMI-1640 medium without fetal bovine serum for 24 hours. Differentiation was initiated by the addition of 0.5 mM dbcAMP. Levels of hPLD2 were quantified later by RT-PCR. Total RNA was isolated from the HL-60 cells at the exponential growth stage by the acid guanidine thiocyanate method following the protocol of Chomczynski, Anal. Biochem. 162:156-62(1992). Two g of RNA was reverse transcribed by using random hexamer mixed primers. The number of amplification cycles were determined to individual primer sets in order to maintain exponential rate of product amplification. Amplified DNA fragments were subjected to electrophoresis on 1.5% agarose gel and visualized by ethidium bromide staining. The intensity of bands was quantified by a densitometer (Atto Densitograph, Tokyo, Japan). Primer E (Forward):
5′[…] 3′. Primer F (reverse):
5′[…] 3′. Amplification conditions used were 94 C. for 30 seconds, 60 C. for 1 minute, and 72 C. for 1 minute; 25-27 cycles.

## [Ca+2] [Ca^2+]
[1]; ARF-stimulated, <10^−8 M to 10^−2 M
  sensitivity of PLD1 activity to ion concentration: insensitive

## [Mg+2] [Mg^2+]
[1]; ARF-stimulated PLD1, free ion concentration, read-out: concentration for half-maximal ARF-stimulated PLD1 activity
  EC50: ~100 µM

## CCCCCCCCCCCCCC(=O)O[C@@H]1[C@@H](C)[C@@]2(O)[C@@H](C=C(CO)C[C@]3(O)C(=O)C(C)=C[C@@H]23)[C@@H]2C(C)(C)[C@]12OC(C)=O [PMA, phorbolmyristate acetate]
[1]; 100 mM PMA in assay medium
  increase in potency with which PKC- stimulated PLD1: approximately 10 fold
[1]; PMA in assay medium
  increase in maximal effect of PKC- on PLD1: approximately 1.5 fold

## O=P(O)(O)O[C@@H]1[C@H](O)[C@H](O)[C@@H](OP(=O)(O)O)[C@H](OP(=O)(O)O)[C@H]1O [inositol 1,4,5 trisphosphate]
[1]; soluble, concentrations up to […]
  activation of PLD1 or block of activation by PI(4,5)P2 or PI(3,4,5)P3: neither activated PLD1 nor blocked activation

## ARF1: Human ARF1, bacterially-expressed and purified G-protein, GTP S-activated
[1]; GTP S-activated G-protein, increasing concentrations
  stimulation of PLD1 (maximal, concentration series): approximately 50 fold
[1]; maximally effective concentration: ARF1 4.7 M, RhoA 3.8 M, Rac1 5.3 M, cdc42 5.5 M, PKC- 0.043 M
  activation of PLD1 by activator alone: 49 fold
[1]; plus maximally effective PKC-
  activation of PLD1 over basal combined with PKC-: 145 fold

## PI(3,4,5)P3
[1]
  lipid content giving maximal activation of PLD1: approximately 7%
  stimulation of PLD1 activity by lipid: stimulated

## PI(4,5)P2
[1]
  lipid content giving maximal activation of PLD1: approximately 7%
  stimulation of PLD1 activity by lipid: stimulated

## hPLD2: human analog of mPLD2
[2]; day 1, RT-PCR
  increase in level (printed as activity) on day 1: approximately 8 fold
[2]; day 2, RT-PCR
  increase in level (printed as activity) on day 2: approximately 12 fold
[2]; day 3, RT-PCR
  increase in level (printed as activity) on day 3: approximately 20 fold

## phosphotidylinositol 4-phosphate [PI4P]
[1]
  stimulation of PLD1 activity by lipid: Only PI(4,5)P2 and PI(3,4,5)P3 stimulated

## phosphotidylinositol [PI]
[1]
  stimulation of PLD1 activity by lipid: Only PI(4,5)P2 and PI(3,4,5)P3 stimulated
